# “Also recorded” adds a separate entry of the source. Bridge positions count the residues as written; N and C are the ends. Square brackets hold non-standard residues; d marks the D form. Peptide text beside a SMILES is read from it. * marks the point of attachment. X1 = CC[C@H](C)CCCCC(=O)*; Dab = NCC[C@H](N)C(=O)O
# Legend:
# D. vulgaris (ATCC 29579) = assay: SRB inhibitory assay: viability after one-hour exposure, MPN technique; assay type: cell-based; settings: one-hour exposure
# Procedure: (§1) D. vulgaris (ATCC 29579) and D. gigas (ATCC 19364) were obtained from the American Type Culture Collection and cultivated in 15 mL screwcap tubes with 10 mL of modified Baar's medium (ATCC medium 1249) supplemented with 100 μL each of the oxygen-scavengers 4% sodium sulfide and Oxyrase (Oxyrase Inc., Mansfeld, Ohio). Initial cultures were grown from −85° C. glycerol stocks; all subsequent cultures were grown with a 3% inoculum from the initial culture maintained at 30° C. without shaking. […] SRB were also cultured periodically in the presence of 0.1% ferrous ammonium sulfate, and the presence of these sulfate-reducers was confirmed by the detection of black iron sulfide in the culture tubes. The desulfoviridin assay was also performed after each MPN assay to confirm the presence of D. vulgaris or D. gigas by its red color under UV light due to the release of the chromophore of the pignment desulfoviridin. (Postgate, 1984).
# (§2) For determining the viability indices (Romeo, et al., 1988) of SRB, a late-exponential phase culture (O.D600 0.16 to 0.19 which corresponded to an initial cell number of 5–9×10^4 cells/mL) was exposed to various concentrations of antimicrobials for 1 hour at 30° C. One mL of cells was harvested, washed once in fresh modified Baar's medium to remove cellular debris, and resuspended in 1 mL of fresh modified Baar's medium supplemented with 10 μL each of Oxyrase (Oxyrase Inc., Mansfeld, Ohio) and 4% sodium sulphide. Aliquots of 450 μL were dispensed in 500 μL sterile eppendorf tubes and appropriate amounts of antimicrobials added and incubated at 30° C. The effectiveness of treatment was determined by the multiple-tube most-probable-number (MPN) fermentation technique. (Anonymous. Multiple-tube fermentation technique for members of the coliform group, pp. 9–45 to 9–51. In A. E. Greenberg, L. S. Clesceri, and A. D. Eaton (eds.), Standard Methods for the Examination of Water and Wastewater, 18 ed. American Public Health Association, American Water Works Association, and Water Pollution Control Federation, New York (1992)) (hereafter, Greenberg, 1992).
# (§3) The MPN test for enumerating SRB was performed in three 12 mL tubes with a 1000 μL inoculum of SRB, three 12 mL tubes with a 500 μL inoculum, and three 12 mL tubes with a 100 μL inoculum. All nine tubes contained a final volume of 10 mL of modified Baar's medium supplemented with 100 μL each of 4% sodium sulfide and Oxyrase (Oxyrase Inc., Mansfeld, Ohio). The tubes were monitored for 72 hours to determine the number of tubes that were positive for growth. Growth was determined by the increase in culture turbidity, and the MPN index/mL was calculated using the Thomas formula. (Greenberg 1992).
# [1] = test system: SRB (D. vulgaris) on 304 stainless steel; assay: Continuous reactor with 304 stainless steel and SRB, electrochemical impedance spectroscopy
# Procedure: Batch culture corrosion experiments using SAE 1018 mild steel coupons (2.5 cm diameter, 1.2 mm thick) were performed in triplicates in 250 mL Erlenmeyer flasks at 30° C. without shaking as described previously (Jayaraman et al., 1997a). A continuous reactor (Jayaraman et al., 1997c) was also used to develop biofilms on 304 stainless steel and monitor corrosion using electrochemical impedance spectroscopy (EIS) in a minimum of two independent reactors using a Solarton-Schlumberger electrochemical measurement unit (SI 1280, Schlumberger Technical Instruments Division, San Jose, Calif.) interfaced to a Macintosh computer (PowerMac 7100/80, Apple Computers, Cupertino, Calif.) running EISIS electrochemical experimentation software (University of California, Irvine) (similar commercial software, THALES, can also be used). The open circuit potential (OCP) was measured as the potential between the metal specimen and a Ag/AgCl reference electrode, and the polarization resistance (Rp) was determined as the low-frequency value of the impedance (where the imaginary part of the impedance was zero or negligible). Continuous culture corrosion rates were estimated as the inverse of the polarization resistance (Macdonald, D. D. and M. C. H. McCubre, Applications of impedance spectroscopy, p. 262–267. In J. R. Macdonald (ed.), Impedance spectroscopy: Emphasizing solid materials and systems, John Wiley & Sons, New York (1987); Stem, M., Journal of Electrochemical Society, 105(11):638–647 (1958)).
# A continuous reactor was used to develop biofilms on metal surfaces as previously described (Jayaraman et al., 1997c). Electrochemical impedance spectroscopy (EIS) was used to obtain impedance data in at least duplicate experiments using a Solarton-Schlumberger electrochemical measurement unit (SI 1280, Schlumberger Technical Instruments Division, San Jose, Calif.) interfaced to a Macintosh computer (PowerMac 7100/80, Apple Computers, Cupertino, Calif.) running EISIS electrochemical experimentation software (University of California, Irvine) (THALES, a similar commercial software, can also be used). The open-circuit potential (OCP) was measured as the potential between the metal specimen and the reference electrode (Ag/AgCl), and the polarization resistance was determined as the dc limit of the impedance using the ANALEIS software developed by Mansfeld et al. (ASTM Special Technical Protocol 1154:186 (1992)). […]
# [2] = test system: SRB (D. vulgaris) on SAE 1018 mild steel; assay: Continuous reactor with SAE 1018 mild steel and SRB, electrochemical impedance spectroscopy
# From the text: A continuous reactor was used to develop biofilms on metal surfaces as previously described (Jayaraman et al., 1997c). Electrochemical impedance spectroscopy (EIS) was used to obtain impedance data in at least duplicate experiments using a Solarton-Schlumberger electrochemical measurement unit (SI 1280, Schlumberger Technical Instruments Division, San Jose, Calif.) interfaced to a Macintosh computer (PowerMac 7100/80, Apple Computers, Cupertino, Calif.) running EISIS electrochemical experimentation software (University of California, Irvine) (THALES, a similar commercial software, can also be used). The open-circuit potential (OCP) was measured as the potential between the metal specimen and the reference electrode (Ag/AgCl), and the polarization resistance was determined as the dc limit of the impedance using the ANALEIS software developed by Mansfeld et al. (ASTM Special Technical Protocol 1154:186 (1992)). Continuous culture corrosion rates were estimated from the experimental polarization resistance Rp based on the Stern-Geary equation Rp=B/Icorr, where B is a parameter depending on the Tafel slopes and icorr is the corrosion current density which can be converted into a corrosion rate using Faraday's law (Mansfeld, F., The polarization resistance technique for measuring corrosion currents, In Fontana, M. G., Staehle, R. W. (ed.), Advances in Corrosion Science and Technology, Plenum Press, New York (1976)).
# A 3% (vol/vol) SRB inoculum (culture age 24–48 hours) was added to the reactor after 3 to 5 days of aerobic biofilm development. […] All antimicrobials were simultaneously added to the nutrient feed and the reactor at appropriate concentrations.
# P. fragi K = assay: Growth of P. fragi K in overnight suspension cultures with antimicrobials; assay type: cell-based; settings: 100 μg/mL, overnight suspension culture
# D. vulgaris [3] = settings: literature (Saleh 1964/Postgate 1984; Odom and Singleton 1993), suspension cultures; cited from earlier work
# D. vulgaris [4] = assay: Susceptibility of SRB cultures to antibiotics and inorganics; assay type: cell-based
# Procedure: (§4) D. vulgaris and D. gigas were incubated in the presence of various antimicrobial peptides, and their viability after one-hour exposure was determined. […] D. gigas was inhibited by anthraquinone at 100 μg/mL (Cooling et al., 1996), and both SRB were inhibited by sodium molybdate at 100 μg/mL. This is similar to the observation of Saleh, et al., 1964, who surveyed nearly 200 compounds for their SRB-inhibitory activity and noted that SRB show a high degree of resistance to inhibitory compounds (Id.).
# D. gigas = assay: as above; assay type: cell-based
# Procedure: as §4
# Escherichia coli = settings: 100 μg/mL; cited from earlier work
# B. subtilis WB600 = assay: Susceptibility of host strains to purified antimicrobials (plate counts); assay type: cell-based; settings: 50 μg/mL, one hour exposure at 30° C.
# B. polymyxa 10401 = assay: as above; assay type: cell-based; settings: 50 μg/mL, one hour exposure at 30° C.
# Procedure: (§5) To determine the susceptibility of the hosts B. subtilis BE1500 and B. polymyxa to the expressed antimicrobials, these strains were grown from a single colony in 25 mL of LB medium with shaking at 37° C. to an O.D600 of 0.40–0.45. One mL aliquots were collected, washed with fresh LB medium and resuspended in 100 μL fresh LB medium in sterile eppendorf tubes. The antimicrobials indolicidin and bactenecin were added (50–100 μg/mL) and the tubes were incubated at 30° C. for one hour without shaking. Appropriate dilutions were spread on LB agar plates and incubated overnight at 37° C. to determine the extent of survival. The results were confirmed by performing two independent experiments.
# B. subtilis BE1500 = assay: as above; assay type: cell-based
# Procedure: as §5
# D. gigas (ATCC 19364) = assay: SRB inhibitory assay: viability after one-hour exposure, MPN technique; assay type: cell-based; settings: 100 μg/mL, one-hour exposure
# Procedure: as §1, §2, §3
# [5] = 100 μg/mL added to P. fragi K biofilm 24 hours before D. vulgaris
# [6] = 100 μg/mL added to P. fragi K biofilm before D. vulgaris
compound,measurement,setting,value
"CC[C@H](C)[C@H](N)C(=O)N[C@@H](CC(C)C)C(=O)N1CCC[C@H]1C(=O)N[C@@H](Cc1c[nH]c2ccccc12)C(=O)N[C@@H](CCCCN)C(=O)N[C@@H](Cc1c[nH]c2ccccc12)C(=O)N1CCC[C@H]1C(=O)N[C@@H](Cc1c[nH]c2ccccc12)C(=O)N[C@@H](Cc1c[nH]c2ccccc12)C(=O)N1CCC[C@H]1C(=O)N[C@@H](Cc1c[nH]c2ccccc12)C(=O)N[C@@H](CCCN=C(N)N)C(=O)N[C@@H](CCCN=C(N)N)C(N)=O [Ind-NH2, indolicidin]",reduction of viability,"D. vulgaris (ATCC 29579); 25 μg/mL, late-exponential-phase culture",99.3%
CC1(C)S[C@@H]2[C@H](NC(=O)[C@H](N)c3ccccc3)C(=O)N2[C@H]1C(=O)O [ampicillin],"effect on D. vulgaris, in words",[1]; [5],completely inhibited
same,time after D. vulgaris addition without change in impedance spectra and Rp,[1]; [6],≥ 100 h
same,"effect on SRB, in words","[1]; antimicrobial added to dual-culture reactor after SRB, ampicillin 200 μg/mL, chloramphenicol 100 μg/mL, ammonium molybdate 200 μg/mL",SRB had not been killed
same,"effect on D. vulgaris, in words",[2]; [5],completely inhibited
same,time after D. vulgaris addition without change / increase in Rp,[2]; [6],≥ 100 h
same,"effect on SRB, in words",[2]; antimicrobial added after SRB growth on mild steel,did not change Rp; also recorded: no inhibition of SRB
same,time to onset of SRB-induced corrosion after ampicillin containing medium was discontinued,[2]; mild steel reactors,≤ 36 h
same,"growth of P. fragi K, in words",P. fragi K,grew to saturation
same,concentration that inhibits D. vulgaris,D. vulgaris [3],1 µg/mL
same,concentration that inhibits the strain,D. vulgaris [4],20 µg/mL
O=C1c2ccccc2C(=O)c2ccccc21 [anthraquinone],concentration that inhibits the strain,D. gigas,100 µg/mL
CC[C@H](C)[C@@H]1NC(=O)[C@H](CCCNC(=N)N)NC(=O)[C@@H](NC(=O)[C@H](CC(C)C)NC(=O)[C@@H](N)CCCNC(=N)N)CSSC[C@@H](C(=O)N[C@@H](CCCNC(=N)N)C(=O)O)NC(=O)[C@H](C(C)C)NC(=O)[C@H](CCCNC(=N)N)NC(=O)[C@H]([C@@H](C)CC)NC(=O)[C@H](C(C)C)NC(=O)[C@H](C(C)C)NC1=O [bactenecin] (H-RLCRIVVIRVCR-OH; disulfide 3-11; N-terminus and C-terminus assumed),inhibition,Escherichia coli,95%
same,Fold-reduction in cell number,B. subtilis WB600,400
same,Fold-reduction in cell number,B. polymyxa 10401,2
same,factor by which the strain is more resistant to bactenecin than to indolicidin,B. subtilis BE1500,60
same,Fold-reduction in cell number,"B. subtilis BE1500; 50 μg/mL, one hour exposure at 30° C.",100
O=C(N[C@H](CO)[C@H](O)c1ccc([N+](=O)[O-])cc1)C(Cl)Cl [chloramphenicol],concentration that inhibits D. vulgaris,D. vulgaris [3],3 µg/mL
same,concentration that inhibits the strain,D. vulgaris [4],20 µg/mL
CC[C@H](C)CCCCC(=O)N[C@@H](CCN)C(=O)N[C@H](C(=O)N[C@@H](CCN)C(=O)N[C@H]1CCNC(=O)[C@H]([C@@H](C)O)NC(=O)[C@H](CCN)NC(=O)[C@H](CCN)NC(=O)[C@H](CC(C)C)NC(=O)[C@@H](Cc2ccccc2)NC(=O)[C@H](CCN)NC1=O)[C@@H](C)O [polymyxin B] (X1-[Dab]T[Dab][Dab][Dab][dF]L[Dab][Dab]T; lactam 4-C (inferred); N-terminus assumed),reduction of viability,D. gigas (ATCC 19364),approximately 90%
same,reduction of viability,D. vulgaris (ATCC 29579); 100 μg/mL,approximately 90%
same,concentration that inhibits D. vulgaris,D. vulgaris [3],100 µg/mL
[Na+].[Na+].[O]=[Mo](=[O])([O-])[O-] [sodium molybdate],concentration that inhibits the strain,D. vulgaris [4],100 µg/mL
same,concentration that inhibits the strain,D. gigas,100 µg/mL
gramicidin D,reduction of viability,D. gigas (ATCC 19364),approximately 90%
same,reduction of viability,D. vulgaris (ATCC 29579); 100 μg/mL,approximately 90%
